Measured values published in patent US9993494B2, “Compositions and methods for treating fibrotic disease” (eFFECTOR Therapeutics, Inc., priority 2014, dated 2018).

Test system: normal human lung fibroblasts
Experiment: Ribosomal profiling: translational efficiency in TGFβ-treated fibroblasts
Format: cell-based
Conditions: TGFβ-treated fibroblasts
How it was run: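 Cells lysed on ice after a cold PBS wash containing cycloheximide. Ribosome-protected fragments and total mRNA were prepared with the ARTseq kit and sequenced by RNA-Seq. Reads were trimmed, mapped to the human genome and counted uniquely over coding regions per gene, with low-count genes excluded before differential translational-efficiency analysis.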

With `Cc1cc(C2CCCCC2)n(O)c(=O)c1.NCCO` [CPX, ciclopirox oloamine] the “renormalizing the translational profile of RPL9” value (ENSG00000163682) was “− (− = <0.9)”, the “renormalizing the translational profile of RHOBTB3” value (ENSG00000164292) was “− (− = <0.9)” and the “renormalizing the translational profile of RPL36AL” value (ENSG00000165502) was “− (− = <0.9)”. The “renormalizing the translational profile of RPL27A” value (ENSG00000166441) was “− (− = <0.9)”, the “renormalizing the translational profile of RP11-382A20.3.1” value (ENSG00000166503) was “− (− = <0.9)” and the “renormalizing the translational profile of ANKDD1A” value (ENSG00000166839) was “− (− = <0.9)”. For the same molecule, the “renormalizing the translational profile of RPL13” value (ENSG00000167526) was “− (− = <0.9)”, the “renormalizing the translational profile of EEF2” value (ENSG00000167658) was “− (− = <0.9)” and the “renormalizing the translational profile of CA5B” value (ENSG00000169239) was “− (− = <0.9)”. For the same molecule, the “renormalizing the translational profile of KIAA1024” value (ENSG00000169330) was “− (− = <0.9)”, the “renormalizing the translational profile of MURC” value (ENSG00000170681) was “− (− = <0.9)” and the “renormalizing the translational profile of HTRA3” value (ENSG00000170801) was “− (− = <0.9)”. The “renormalizing the translational profile of PDE7B” value (ENSG00000171408) was “− (− = <0.9)”, the “renormalizing the translational profile of LPAR3” value (ENSG00000171517) was “− (− = <0.9)” and the “renormalizing the translational profile of CTPS” value (ENSG00000171793) was “− (− = <0.9)”. The “renormalizing the translational profile of QARS” value (ENSG00000172053) was “− (− = <0.9)”, the “renormalizing the translational profile of RPL38” value (ENSG00000172809) was “− (− = <0.9)” and the “renormalizing the translational profile of MRPL45” value (ENSG00000174100) was “− (− = <0.9)”. The “renormalizing the translational profile of RPL4” value (ENSG00000174444) was “− (− = <0.9)”, the “renormalizing the translational profile of RPL15” value (ENSG00000174748) was “− (− = <0.9)” and the “renormalizing the translational profile of DES” value (ENSG00000175084) was “− (− = <0.9)”. The “renormalizing the translational profile of EIF3F” value (ENSG00000175390) was “− (− = <0.9)”, the “renormalizing the translational profile of CLCF1” value (ENSG00000175505) was “− (− = <0.9)” and the “renormalizing the translational profile of AMIGO3” value (ENSG00000176020) was “− (− = <0.9)”. For the same molecule, the “renormalizing the translational profile of C14orf49” value (ENSG00000176438) was “− (− = <0.9)”, the “renormalizing the translational profile of RPLP2” value (ENSG00000177600) was “− (− = <0.9)” and the “renormalizing the translational profile of IMPDH2” value (ENSG00000178035) was “− (− = <0.9)”. For the same molecule, the “renormalizing the translational profile of DNAJC22” value (ENSG00000178401) was “− (− = <0.9)”, the “renormalizing the translational profile of RPL35A” value (ENSG00000182899) was “− (− = <0.9)” and the “renormalizing the translational profile of LENG9” value (ENSG00000182909) was “− (− = <0.9)”. For the same molecule, the “renormalizing the translational profile of C22orf32” value (ENSG00000183172) was “− (− = <0.9)”, the “renormalizing the translational profile of PDE4B” value (ENSG00000184588) was “− (− = <0.9)” and the “renormalizing the translational profile of ROBO2” value (ENSG00000185008) was “+ (+ = 0.9 to 1.5)”. The “renormalizing the translational profile of PTCH1” value (ENSG00000185920) was “− (− = <0.9)”, the “renormalizing the translational profile of POLR1D” value (ENSG00000186184) was “− (− = <0.9)” and the “renormalizing the translational profile of DYNC2H1” value (ENSG00000187240) was “− (− = <0.9)”. For the same molecule, the “renormalizing the translational profile of RPL14” value (ENSG00000188846) was “− (− = <0.9)”, the “renormalizing the translational profile of LRRK2” value (ENSG00000188906) was “− (− = <0.9)” and the “renormalizing the translational profile of NACA” value (ENSG00000196531) was “− (− = <0.9)”. For the same molecule, the “renormalizing the translational profile of LAMB3” value (ENSG00000196878) was “+ (+ = 0.9 to 1.5)”, the “renormalizing the translational profile of PCBP2” value (ENSG00000197111) was “− (− = <0.9)” and the “renormalizing the translational profile of MAP3K5” value (ENSG00000197442) was “− (− = <0.9)”. The “renormalizing the translational profile of RPL37A” value (ENSG00000197756) was “− (− = <0.9)”, the “renormalizing the translational profile of RPL12” value (ENSG00000197958) was “− (− = <0.9)” and the “renormalizing the translational profile of LPAR1” value (ENSG00000198121) was “− (− = <0.9)”. The “renormalizing the translational profile of RPL23A” value (ENSG00000198242) was “− (− = <0.9)”, the “renormalizing the translational profile of PLN” value (ENSG00000198523) was “− (− = <0.9)” and the “renormalizing the translational profile of RPL10A” value (ENSG00000198755) was “− (− = <0.9)”. For the same molecule, the “renormalizing the translational profile of CES1” value (ENSG00000198848) was “+ (+ = 0.9 to 1.5)”, the “renormalizing the translational profile of RPL39” value (ENSG00000198918) was “− (− = <0.9)” and the “renormalizing the translational profile of CARD16” value (ENSG00000204397) was “− (− = <0.9)”. For the same molecule, the “renormalizing the translational profile of MICA” value (ENSG00000204520) was “− (− = <0.9)”, the “renormalizing the translational profile of GNB2L1” value (ENSG00000204628) was “− (− = <0.9)” and the “renormalizing the translational profile of RPL17” value (ENSG00000215472) was “− (− = <0.9)”. For the same molecule, the “renormalizing the translational profile of RPL41” value (ENSG00000229117) was “− (− = <0.9)”, the “renormalizing the translational profile of ARPC1A” value (ENSG00000241685) was “− (− = <0.9)” and the “renormalizing the translational profile of CHCHD10” value (ENSG00000250479) was “− (− = <0.9)”. For the same molecule, the “renormalizing the translational profile of EEF1G” value (ENSG00000254772) was “− (− = <0.9)”, the “number of genes whose translational efficiency was uniquely modulated by the compound” value (duplicate ribosomal profiles) was “six” and the “effect in renormalizing the translational profile of the gene” value (gene RPS2 (ENSG00000140988)) was “− (− = <0.9)”. For the same molecule, the “effect in renormalizing the translational profile of the gene” value (gene RPS3 (ENSG00000149273)) was “− (− = <0.9)”, the “effect in renormalizing the translational profile of the gene” value (gene RPS3A (ENSG00000145425)) was “− (− = <0.9)” and the “effect in renormalizing the translational profile of the gene” value (gene RPS4X (ENSG00000198034)) was “− (− = <0.9)”. For the same molecule, the “effect in renormalizing the translational profile of the gene” value (gene RPS4Y1 (ENSG00000129824)) was “− (− = <0.9)” and the “effect in renormalizing the translational profile of the gene” value (gene RPS5 (ENSG00000083845)) was “− (− = <0.9)”.
